In patent US9718790B2, “Triazine derivative and pharmaceutical composition having an analgesic activity comprising the same” (SHIONOGI & CO., LTD., priority 2010, dated 2017):
pIC50: −log10 of the molar value.

Target: human P2X3 receptor (Homo sapiens (Human), UniProt P56373)
Assay: Evaluation of human P2X3 receptor inhibitory activity (Fluo-3 calcium fluorescence, FDSS 3000, ATP stimulation);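 note: stimulus was 50 nM ATP with fluorescence followed for 3 min, and the response per well was peak post-ATP fluorescence divided by the reading at measurement start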
Format: cell-based
[1] = C6BU-1 cells stably expressing human P2X3 receptor, Fluo-3 fluorescence, FDSS 3000
[2] = C6BU-1 cells stably expressing human P2X3 receptor
[3] = human P2X3 receptor, Test Example 1

Sequence of human P2X3 receptor (P56373 whole entry): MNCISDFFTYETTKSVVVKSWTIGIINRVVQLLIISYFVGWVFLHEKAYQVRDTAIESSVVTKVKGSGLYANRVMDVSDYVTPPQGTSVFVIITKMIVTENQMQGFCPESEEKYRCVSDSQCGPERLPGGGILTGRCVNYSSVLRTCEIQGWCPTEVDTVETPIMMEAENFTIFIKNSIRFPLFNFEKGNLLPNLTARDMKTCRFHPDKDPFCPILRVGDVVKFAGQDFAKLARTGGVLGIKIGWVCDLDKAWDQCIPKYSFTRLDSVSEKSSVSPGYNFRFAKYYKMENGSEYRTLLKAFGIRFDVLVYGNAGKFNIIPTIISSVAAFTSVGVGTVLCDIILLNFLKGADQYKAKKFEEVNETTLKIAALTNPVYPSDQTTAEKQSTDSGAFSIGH

Row | Structure (SMILES) | pIC50 [1] | pIC50 [3] | also measured
1 | COCO[C@@H](Cn1c(=O)[nH]/c(=N\c2ccc(OC(C)C)c(C)c2)n(Cc2ccc(Cl)cc2)c1=O)C(=O)OC [Compound I-0993, (S)-1-(4-chlorobenzyl)-6-(3-mehyl-4-isopropoxyphenylimino)-3-[2-methoxycarbonyl-2-(methoxymethyloxy)ethyl]-1,3,5-triazinane-2,4-dion] | 7.70 |  | 
2 | COC(=O)C(C)(C)Cn1c(=O)[nH]/c(=N\c2ccc(OC(C)C)c(OC)c2)n(Cc2ccc(C)cc2)c1=O [Compound I-1272] |  |  | pIC50 [2]: 8.15
3 | COC(=O)[C@H](C)[C@H](C)n1c(=O)[nH]/c(=N\c2ccc(OC(C)C)c(Cl)c2)n(Cc2ccc(C)cc2)c1=O [Compound I-0928] | 7.85 |  | 
4 | Cc1[nH]c2ccc(/N=c3\[nH]c(=O)n(C[C@H]4COC(C)(C)O4)c(=O)n3Cc3ccc(Cl)cc3)cc2c1C [Compound I-2039] |  |  | pIC50 [2]: 8.05
5 | N#CNC(=O)Cn1c(=O)[nH]/c(=N\c2ccc(Oc3ccon3)cc2)n(Cc2ccc(Cl)cc2)c1=O [Compound I-2604] |  | 7.68 | 
6 | CC(C)OCc1ccc(/N=c2\[nH]c(=O)n(C[C@H](C)C(=O)O)c(=O)n2Cc2ccc(Cl)cc2)cc1 [Compound I-0669] |  |  | pIC50 [2]: 6.71
7 | CC(C)Oc1ccc(/N=c2\[nH]c(=O)n(CC(=O)NCC3CCOCC3)c(=O)n2Cc2ccc(Cl)cc2)cc1Cl [Compound I-0664] |  |  | pIC50 [2]: 8.22
8 | Cc1nc2ccc(/N=c3\[nH]c(=O)n(CC(C)(CO)CO)c(=O)n3Cc3ccc(Cl)cc3)cc2s1 [Compound I-1643] | 8.30 |  | 
9 | O=c1[nH]/c(=N\c2ccc(Oc3ncns3)cc2)n(Cc2ccc(Cl)cc2)c(=O)n1CC(CO)CO [Compound I-2521] |  | 8.30 | 
10 | CCCOc1ccc(/N=c2\[nH]c(=O)n(C[C@@H](CC)C(=O)OC)c(=O)n2Cc2ccc(Cl)cc2)cc1 [Compound I-1038] | 8.22 |  | 
11 | COC(=O)[C@@H](C)Cn1c(=O)[nH]/c(=N\c2ccc(NC(C)=O)cc2)n(Cc2ccc(C)cc2)c1=O [Compound I-1415] |  |  | pIC50 [2]: 6.27
12 | COC(=O)[C@@H](C)Cn1c(=O)[nH]/c(=N\c2ccc(C3CC3)cc2)n(Cc2ccc(C)cc2)c1=O [Compound I-1460] |  |  | pIC50 [2]: 6.57
13 | CCn1c(=O)[nH]/c(=N\c2ccc(Oc3cc(C(=O)O)ncn3)cc2)n(Cc2ccc(C)cc2)c1=O [Compound I-2444] |  | 8.10 | 
14 | Cc1ccc(Cn2c(=O)n(C)c(=O)[nH]/c2=N\c2ccc(Oc3cnc(C(=O)O)cn3)cc2)cc1 [Compound I-2385] |  | 7.89 | 
15 | C[C@H](Cn1c(=O)[nH]/c(=N\c2ccc(N3CCCCC3)cc2)n(Cc2ccc(Cl)cc2)c1=O)C(=O)O [Compound I-1486] |  | 7.37 | 
16 | O=C(O)Cn1c(=O)[nH]/c(=N\c2ccc(Oc3nccs3)cc2)n(Cc2ccc(Cl)cc2)c1=O [Compound I-2623] |  | 6.30 | 
17 | CCn1c(=O)[nH]/c(=N\c2ccc(Oc3cc(C(=O)O)n[nH]3)cc2)n(Cc2ccc(Cl)cc2)c1=O [Compound I-2194] |  |  | pIC50 [2]: 7.28
18 | CC[C@@H](C)Oc1ccc(/N=c2\[nH]c(=O)n(C[C@H](C)C(=O)O)c(=O)n2Cc2ccc(C)cc2)cc1Cl [Compound I-1013] | 8.30 |  | 
19 | CCCOc1ccc(/N=c2\[nH]c(=O)n(C[C@H](C)C(=O)O)c(=O)n2Cc2ccc(Cl)cc2)cc1 [Compound I-0623] |  |  | pIC50 [2]: 7.70
20 | C[C@@H](C(=O)O)[C@H](C)n1c(=O)[nH]/c(=N\c2ccc3c(c2)nc(-c2ccccc2)n3C)n(Cc2ccc(Cl)cc2)c1=O [Compound I-1812] | 6.20 |  | 
21 | O=c1[nH]/c(=N\c2ccc(Oc3ccon3)cc2)n(Cc2ccc(Cl)cc2)c(=O)n1CCOCCO [Compound I-2490] |  | 8.00 | 

Row | Structure (SMILES) | pIC50 [1] | pIC50 [3] | also measured
22 | Cc1ccc(Cn2c(=O)n(CC(C)(C)C(=O)O)c(=O)[nH]/c2=N\c2ccc(CC(C)C)c(Cl)c2)cc1 [Compound I-1462] |  |  | pIC50 [2]: 8.52
23 | CCc1oc2ccc(/N=c3\[nH]c(=O)n(CC(=O)O)c(=O)n3Cc3ccc(Cl)cc3)cc2c1C [Compound I-1609] | 6.73 |  | 
24 | CCn1c(=O)[nH]/c(=N\c2ccc(Oc3ccnc(C#N)n3)cc2)n(Cc2ccc(Cl)cc2)c1=O [Compound I-2310] |  | 8.30 | 
25 | CCOC(=O)CCn1c(=O)[nH]/c(=N\c2ccc(OCC3CC3)c(Cl)c2)n(Cc2ccc(C)cc2)c1=O [Compound I-0957] | 7.60 |  | 
26 | CCOC(=O)CCn1c(=O)[nH]/c(=N\c2ccc(OC[C@@H](C)CC)cc2)n(Cc2ccc(C)cc2)c1=O [Compound I-1051] | 7.00 |  | 
27 | Cc1ccc(Cn2c(=O)n(C[C@H](C)C(=O)O)c(=O)[nH]/c2=N\c2cccc(CC(C)C)c2)cc1 [Compound I-1137] | 6.17 |  | 
28 | CCOc1ccc(/N=c2\[nH]c(=O)n(C[C@@H](C)C(=O)OC)c(=O)n2Cc2ccc(C)cc2)cc1Cl [Compound I-1106] | 8.15 |  | 
29 | COC(=O)[C@@H](C)[C@@H](C)n1c(=O)[nH]/c(=N\c2cccc(C(F)(F)F)c2)n(Cc2ccc(Cl)cc2)c1=O [Compound I-1317] |  |  | pIC50 [2]: 6.98
30 | O=c1[nH]/c(=N\c2ccc(Oc3ccnc(O)c3)cc2)n(Cc2ccc(Cl)cc2)c(=O)n1C[C@H](O)CO [Compound I-1731] | 8.30 |  | 
31 | CC(=O)NCCn1c(=O)[nH]/c(=N\c2ccc(Oc3ccon3)cc2)n(Cc2ccc(Cl)cc2)c1=O [Compound I-2524] |  | 7.47 | 
32 | COC(=O)[C@@H](C)Cn1c(=O)[nH]/c(=N\c2ccc(OC3CC3)c(Cl)c2)n(Cc2ccc(C)cc2)c1=O [Compound I-1605] | 7.74 |  | 
33 | CCOC(=O)CCn1c(=O)[nH]/c(=N\c2ccc3nc(C)sc3c2)n(Cc2ccc(Cl)cc2)c1=O [Compound I-1518] |  | 8.70 | 
34 | C[C@@H](C(=O)O)[C@H](C)n1c(=O)[nH]/c(=N\c2ccc3nc(C4CC4)sc3c2)n(Cc2ccc(Cl)cc2)c1=O [Compound I-1586] | 7.89 |  | 
35 | O=c1[nH]/c(=N\c2ccc(Oc3ccon3)c(F)c2)n(Cc2ccc(Cl)cc2)c(=O)n1CCO [Compound I-2438] |  | 8.15 | 
36 | CCCOc1ccc(/N=c2\[nH]c(=O)n(CC(F)(F)C(=O)OCC)c(=O)n2Cc2ccc(C)cc2)cc1 [Compound I-0859] |  | 7.77 | 
37 | Cc1ccc(Oc2ccc(/N=c3\[nH]c(=O)n(CC(C)(C)C(=O)O)c(=O)n3Cc3ccc(Cl)cc3)cc2)cn1 [Compound I-1358] |  |  | pIC50 [2]: 8.05
38 | COC(=O)[C@@H](C)Cn1c(=O)[nH]/c(=N\c2ccc(C3CCCCC3)cc2)n(Cc2ccc(C)cc2)c1=O [Compound I-1087] | 7.15 |  | 
39 | CCn1c(=O)[nH]/c(=N\c2ccc(Oc3cccc(C(=O)O)c3)cc2)n(Cc2ccc(Cl)cc2)c1=O [Compound I-1881] | 8.22 |  | 
40 | C#Cc1ccc(Cn2c(=O)n(C[C@H](C)C(=O)OC)c(=O)[nH]/c2=N\c2ccc(OC(C)C)c(C)c2)cc1 [Compound I-0945] | 6.76 |  | 
41 | CCOC(=O)C1(COc2ccc(/N=c3\[nH]c(=O)n(CC)c(=O)n3Cc3ccc(Cl)cc3)cc2)CC1 [Compound I-2014] |  |  | pIC50 [2]: 6.44
42 | CCn1c(=O)[nH]/c(=N\c2ccc(Oc3nc(C(N)=O)cs3)cc2)n(Cc2ccc(Cl)cc2)c1=O [Compound I-2608] |  | 8.22 | 

Row | Structure (SMILES) | pIC50 [1] | pIC50 [3] | also measured
43 | Cn1c(=O)[nH]/c(=N\c2ccc(Oc3cnc(C(=O)O)cn3)cc2)n(Cc2ccc(Cl)cc2)c1=O [Compound I-2386] |  | 7.89 | 
44 | O=c1[nH]/c(=N\c2ccc(Oc3ccnc(O)c3)cc2)n(Cc2ccc(Cl)cc2)c(=O)n1CCO [Compound I-1712] | 8.40 |  | 
45 | C[C@@H](Oc1ccc(/N=c2\[nH]c(=O)n(C[C@H](O)CO)c(=O)n2Cc2ccc(Cl)cc2)cc1)C(F)(F)F [Compound I-1845] | 7.48 |  | 
46 | COC(=O)[C@H](C)[C@H](C)n1c(=O)[nH]/c(=N\c2ccc(OC(C)C)c(Cl)c2)n(Cc2ccc(Cl)cc2)c1=O [Compound I-0917] | 7.72 |  | 
47 | CNC(=O)Cn1c(=O)[nH]/c(=N\c2ccc3nc(C)sc3c2)n(Cc2ccc(Cl)cc2)c1=O [Compound I-1660] | 8.30 |  | 
48 | CCn1c(=S)[nH]/c(=N\c2ccc(Oc3cncc(C(=O)OC)c3)cc2)n(Cc2ccc(Cl)cc2)c1=O [Compound I-2262, 1-(4-chlorobenzyl)-3-ethyl-6-[4-(5-methoxycarbonyl-3-pyridyloxy)phenylimino]-4-thioxo-1,3,5-triazinane-2-one] |  | 7.77 | 
49 | Cc1oc2ccc(/N=c3\[nH]c(=O)n(CC4COC(C)(C)OC4)c(=O)n3Cc3ccc(Cl)cc3)cc2c1C [Compound I-2071] |  |  | pIC50 [2]: 8.10
50 | C[C@@H](C(=O)O)[C@H](C)n1c(=O)[nH]/c(=N\c2ccc(OC3CCC3)cc2)n(Cc2ccc(Cl)cc2)c1=O [Compound I-1391] |  |  | pIC50 [2]: 7.80
51 | CCn1c(=O)[nH]/c(=N\c2ccc(Oc3ccc(NCC(=O)O)nc3)cc2)n(Cc2ccc(Cl)cc2)c1=O [Compound I-2622] |  | 8.30 | 
52 | O=c1[nH]/c(=N\c2ccc(Oc3cncc(CO)c3)cc2)n(Cc2ccc(Cl)cc2)c(=O)n1CCO [Compound I-2079] |  |  | pIC50 [2]: 7.42
53 | Cc1cc(Oc2ccc(/N=c3\[nH]c(=O)n(C[C@H]4COC(C)(C)O4)c(=O)n3Cc3ccc(Cl)cc3)cc2)n(C)n1 [Compound I-2368] |  | 7.89 | 
54 | CCCc1nc2ccc(/N=c3\[nH]c(=O)n(CCC(=O)OCC)c(=O)n3Cc3ccc(C)cc3)cc2s1 [Compound I-1558] | 8.10 |  | 
55 | Cc1ccc(Cn2c(=O)n(C)c(=O)[nH]/c2=N\c2ccc(Oc3nccc(C(=O)O)n3)cc2)cc1 [Compound I-2403] |  | 7.21 | 
56 | O=c1[nH]/c(=N\c2ccc(Oc3cccc(O)n3)cc2)n(Cc2ccc(Cl)cc2)c(=O)n1CC(CO)CO [Compound I-2685] |  | 7.92 | 
57 | C[C@@H](C(=O)O)[C@H](C)n1c(=O)[nH]/c(=N\c2ccc3[nH]c(=O)[nH]c(=O)c3c2)n(Cc2ccc(Cl)cc2)c1=O [Compound I-1818] | 6.08 |  | 
58 | CCOC(=O)CCn1c(=O)[nH]/c(=N\c2ccc(O[C@H](C)CC)cc2)n(Cc2ccc(C)cc2)c1=O [Compound I-1018] | 8.10 |  | 
59 | COC(=O)[C@@H](C)Cn1c(=O)[nH]/c(=N\c2ccc(N3CCCCCC3)cc2)n(Cc2ccc(Cl)cc2)c1=O [Compound I-1233] |  |  | pIC50 [2]: 6.49
60 | CCOC(=O)c1cc(Cn2c(=O)[nH]/c(=N\c3ccc(OC(C)C)c(C)c3)n(Cc3ccc(Cl)cc3)c2=O)on1 [Compound I-0784] |  |  | pIC50 [2]: 7.66
61 | Cc1ccc(Cn2c(=O)n(C[C@H](C)C(=O)O)c(=O)[nH]/c2=N\c2ccc(OCCC(C)C)cc2)cc1 [Compound I-1063] | 6.82 |  | 
62 | COC(=O)[C@@H](C)Cn1c(=O)[nH]/c(=N\c2ccc(OC(C)C)c(C)c2)n(Cc2ccc(C(C)C)cc2)c1=O [Compound I-0997] | 6.17 |  | 
